From patent US20240239771A1, “BACTERIAL EFFLUX PUMP INHIBITORS” (priority 2020, published 2024)
Counter-ions that a name gives are not always drawn. Like-named read-outs stand apart in the source and are kept apart here.

Experiments:
[1] = tested on: Pseudomonas aeruginosa ATCC 27853; experiment: Intrinsic MIC assay (CLSI broth microdilution); assay type: cell-based
Protocol: MIC assays were conducted in accordance with Clinical and Laboratory Standards Institute (CLSI) guidelines for broth microdilution. A 96-well plate containing cation-adjusted Mueller-Hinton (CAMH broth with 2-fold serial dilution of compounds was inoculated with log-phase bacterial at 5×10^5 CFU/mL. The final volume in each well was 100 μL. Each compound was tested in duplicate. The microtiter plates were incubated in an aerobic environment for 18 hours at 37° C. Then the bacterial growth was tested by reading the plate with a VersaMax plate reader (Molecular Devices, Inc.) at 600 nm. The MIC was defined as the lowest compound concentration that inhibited 90% of bacteria growth.
The intrinsic MIC of the experimental EPIs was tested with the method described. The 2-fold serial dilution begins with 100 μg/mL of tested compound in the first column of the 96-well plates. The following Gram-negative bacterial strain was included in these assays: Pseudomonas aeruginosa ATCC 27853.

[2] = tested on: Pseudomonas aeruginosa ATCC 27853; experiment: Standard EPI assay: MIC of test antibiotic in absence and presence of EPI; assay type: cell-based; conditions: for Enhanced Antibiotic's Activity (fold increase), Doxycycline: doxycycline with compound at 6.25 μg/mL, relative to MIC without EPI (32 μg/mL); for Enhanced Antibiotic's Activity (fold increase), Levofloxacin: levofloxacin with compound at 6.25 μg/mL, relative to MIC without EPI (1 μg/mL); for Enhanced Antibiotic's Activity (fold increase), Ceftazidime: ceftazidime with compound at 6.25 μg/mL, relative to MIC without EPI (2 μg/mL)
Protocol: The EPI assay for the purposes of these studies represents a MIC assay in which the MIC of the antibiotic against the bacteria is tested in the presence of an experimental efflux pump inhibitor (EPI). The highest concentration of the EPI present in the assay typically is ½ of the intrinsic MIC of the compound. If the intrinsic MIC of the EPI is greater than 100 μg/mL, the EPI assay was tested with 50 μg/mL. Using serial dilutions of the EPI, its enhancement of antibiotic activity was then evaluated. The relative EPI activity was decided by comparing the MIC of the antibiotic in the presence of the EPI compound with the intrinsic MIC of the antibiotic alone.
The impact of the EPIs on the MIC values of three test antibiotics (levofloxacin, ceftazidime and doxycycline) against P. aeruginosa ATCC 27853 were evaluated using our standard EPI assay. All three antibiotics levofloxacin, ceftazidime and doxycycline are known substrates of efflux pumps in P. aeruginosa, and are thus well-suited to be test antibiotics to assay for EPI activity.
In our standard EPI assay, the MIC of the test antibiotic is determined in the absence and presence of sub-inhibitory concentrations of the EPI. […] The MIC of levofloxacin against P. aeruginosa ATCC 27853 in the absence of EPI is 1 μg/mL. […] Similarly, the MIC of ceftazidime against P. aeruginosa ATCC 27853 in the absence of EPI is 2 μg/mL. In the presence of 6.25 μg/mL of the Example 4, the MIC of ceftazidime was reduced to 0.5 μg/mL, a 4-fold reduction. […] For all the examples in Table 1, the potentiation activities are determined at 6.25 μg/mL.

[3] = ATCC27853, read-out: Intrinsic MIC of Compound

Row | SMILES | MIC [1, 3] [µg/mL] | Enhanced Antibiotic's Activity (fold increase), Doxycycline [2] [fold] | Enhanced Antibiotic's Activity (fold increase), Levofloxacin [2] [fold] | Enhanced Antibiotic's Activity (fold increase), Ceftazidime [2] [fold] | MIC ([1]; ATCC27853, P. aeruginosa ATCC 27853, compound alone, read-out: Intrinsic MIC of Compound) [µg/mL]
1 | Cc1c(C(=O)NC[C@@H](N)COCCN)[nH]c2cccc(-c3ccc(F)cc3)c12 [Example 33, (R)—N-(2-amino-3-(2-aminoethoxy)propyl)-4-(4-fluorophenyl)-3-methyl-1H-indole-2-carboxamide hydrogen chloride salt] | 100 | 128 | 32 | – | –
2 | NCCOC[C@H](N)CNC(=O)c1[nH]c2ccc(F)cc2c1C1CCCCC1 [Example 22, (R)—N-(2-amino-3-(2-aminoethoxy)propyl)-3-cyclohexyl-5-fluoro-1H-indole-2-carboxamide hydrogen chloride salt] | 25 | – | 32 | – | –
3 | N#Cc1ccc(-c2c(C(=O)NC[C@@H](N)COCCN)[nH]c3ccc(F)cc23)cc1 [Example 20, (R)—N-(2-amino-3-(2-aminoethoxy)propyl)-3-(4-cyanophenyl)-5-fluoro-1H-indole-2-carboxamide hydrogen chloride salt] | > 100 | 16 | 16 | 2 | –
4 | N#Cc1ccc(-c2c(C(=O)NC[C@@H](N)CC(O)CN)[nH]c3c(F)cccc23)cc1 (stereo partly drawn) [Example 14, 3-(4-cyanophenyl)-N-((2S)-2,5-diamino-4-hydroxypentyl)-7-fluoro-1H-indole-2-carboxamide hydrogen chloride salt] | > 100 | 16 | 32 | 1 | –
5 | NCCC(O)[C@@H](N)CNC(=O)c1[nH]c2ccccc2c1-c1ccccc1F (stereo partly drawn) [Example 7, N-((2S)-2,5-diamino-3-hydroxypentyl)-3-(2-fluorophenyl)-1H-indole-2-carboxamide hydrogen chloride salt] | > 100 | 4 | 2 | 1 | –
6 | N#Cc1ccc(-c2c(C(=O)NC[C@@H](N)CC(O)CN)[nH]c3ccccc23)cc1 (stereo partly drawn) [Example 11, 3-(4-cyanophenyl)-N-((2S)-2,5-diamino-4-hydroxypentyl)-1H-indole-2-carboxamide hydrogen chloride salt] | > 100 | 16 | 16 | 1 | –
7 | NCC(O)[C@H](N)CNC(=O)c1[nH]c2ccccc2c1-c1ccc(F)cc1 (stereo partly drawn) [Example 35, N-((2R)-2,4-diamino-3-hydroxybutyl)-3-(4-fluorophenyl)-1H-indole-2-carboxamide] | – | – | 4 | – | 200
8 | NCCC(O)[C@@H](N)CNC(=O)c1[nH]c2ccccc2c1-c1ccccc1 (stereo partly drawn) [Example 2, N-((2S)-2,5-diamino-3-hydroxypentyl)-3-phenyl-1H-indole-2-carboxamide hydrogen chloride salt] | > 100 | 16 | 8 | – | –
9 | NCCOC[C@H](N)CNC(=O)c1[nH]c2ccccc2c1-c1ccc(F)cc1 [Example 19, (R)—N-(2-amino-3-(2-aminoethoxy)propyl)-3-(4-fluorophenyl)-1H-indole-2-carboxamide hydrogen chloride salt] | > 100 | 16 | 16 | 2 | –
10 | NCCC(O)[C@@H](N)CNC(=O)c1[nH]c2ccccc2c1C1CCC(F)(F)CC1 (stereo partly drawn) [Example 6, N-((2S)-2,5-diamino-3-hydroxypentyl)-3-(4,4-difluorocyclohexyl)-1H-indole-2-carboxamide hydrogen chloride salt] | 100 | 16 | 64 | 4 | –
11 | NCCOC[C@H](N)CNC(=O)c1cc2ccc(-c3ccc(F)cc3)cc2[nH]1 [Example 31, (R)—N-(2-amino-3-(2-aminoethoxy)propyl)-6-(4-fluorophenyl)-1H-indole-2-carboxamide hydrogen chloride salt] | > 200 | 32 | 8 | 4 | –
12 | NCCOC[C@H](N)CNC(=O)c1cc2ccc(-c3ccccc3)cc2[nH]1 [Example 32, (R)—N-(2-amino-3-(2-aminoethoxy)propyl)-6-phenyl-1H-indole-2-carboxamide hydrogen chloride salt] | > 200 | – | 4 | – | –
13 | NCC[C@@H](O)[C@@H](N)CNC(=O)c1[nH]c2ccccc2c1-c1ccc(F)cc1 [Example 1, N-((2S,3R)-2,5-diamino-3-hydroxypentyl)-3-(4-fluorophenyl)-1H-indole-2-carboxamide hydrogen chloride salt] | > 100 | 16 | 8 | 1 | –
14 | NCC(O)C[C@H](N)CNC(=O)c1[nH]c2ccccc2c1-c1ccc(F)cc1 (stereo partly drawn) [Example 10, 3-(4-fluorophenyl)-N-((2S)-2,5-diamino-4-hydroxypentyl)-1H-indole-2-carboxamide hydrogen chloride salt] | 100 | 32 | 16 | 4 | –
15 | NCCC(O)[C@@H](N)CNC(=O)c1cc2cccc(-c3ccc(F)cc3)c2[nH]1 (stereo partly drawn) [Example 28, N-((2S)-2,5-diamino-3-hydroxypentyl)-7-(4-fluorophenyl)-1H-indole-2-carboxamide hydrogen chloride salt] | 50 | – | 16 | – | –
16 | NC[C@H]1CN[C@H](CNC(=O)c2[nH]c3ccccc3c2-c2ccc(F)cc2)[C@@H]1O [Example 26, N-(((2R,3R,4S)-4-(aminomethyl)-3-hydroxypyrrolidin-2-yl)methyl)-3-(4-fluorophenyl)-1H-indole-2-carboxamide hydrogen chloride salt] | > 100 | 32 | 16 | 2 | –
